{"source": "patent US10617677B2", "about": "“Nuclear transport modulators and uses thereof” (Biogen MA Inc., priority 2012, dated 2020)", "key": {"[1]": {"tested_on": "collagen-induced arthritis", "assay": "Collagen-induced arthritis (CIA) Study No. 2 in Lewis rats", "assay_type": "in vivo", "description": "To further investigate the effect of the compounds described herein on inflammation biomarkers, a second CIA model was initiated. In this model, the groups were designated as group A (naïve), group B (model; vehicle-treated), group C (Compound 2 at 5 mg/kg QoD). The rats in groups B and C were immunized intradermally with bovine Type II collagen in IFA on day 0, and a booster injection was given on day 7. Compound 2 was orally administered to rats with CIA after the onset of arthritis (Day 11). CIA development was evaluated via macroscopic scoring and measurements of paw swelling. This was assessed every day for the first 5 days after sensitization (day 7), and then twice per week (Monday and Thursday) until Day 28 using the clinical scoring system described in Table 7 above. In addition, ELISAs for CD45, CRP, CCL2/MCP-1, TNF-α, IL1-β, IL-6, IL-17, and measurements for cathepsin K and elastase were performed 4 days (Day 15 of the study) and 10 days (Day 21 of the study—peak for the disease) after compound treatment and at the very end of the study (Day 28) on all group animals. Additionally, on the last day of the study (Day 28), a few representative animals from each group were subjected to three-dimensional micro-tomodensitometry of calcaneus, and bone erosion in the paws was quantified.\nA LUMINEX® assay and ELISA were used to measure the effects of Compound 2 on the levels of pro-inflammatory cytokines and inflammation markers. Synovial fluid was collected on Day 21, after the first immunization, from 2 rats in the model group and 2 rats in the Compound 2-treated group, and at the end of the study from 2 rats in the naïve group, 3 rats in the model group and 3 rats in the Compound 2-treated group.\nA LUMINEX® assay was also used to measure the levels of pro-inflammatory cytokines in serum. Serum samples (1 mL of blood per rat) were collected 4 days after compound treatment (Day 15), 10 days after compound treatment (usually at the disease peak—Day 21) and at the end of the study (Day 27)."}, "[2]": {"tested_on": "anti-collagen antibody induced arthritis", "assay": "Anti-collagen antibody induced mouse model of rheumatoid arthritis (CAIA)", "assay_type": "in vivo, mice", "description": "Twenty-four (24) male Balb/c mice, aged 6 to 8 weeks were used. […] On study Day 0 (study commencement), all mice were subjected to a 2 mg intravenous injection of ArthritoMAb™ antibody cocktail (MD Biosciences # S1203001) followed by an intraperitoneal injection of LPS ([…]) on study Day 3. […] Treatments were administered once daily on days 4, 6, 8 and 10 for all groups, except where dosing vacations applied. If an animal's weight dropped below 87% of its day 0 starting weight, the animal was not dosed until it gained weight equivalent to 90% or more of day 0 weight.\nArthritis development, clinical signs and body weights were monitored in all mice on study days 0, 3-8, 10 and 12. Observations included changes in skin, fur, eyes, mucous membranes, occurrence of secretions and excretions (e.g., diarrhea) and autonomic activity (e.g., lacrimation, salivation, piloerection, pupil size, unusual respiratory pattern). All paws (front left and right, and rear left and right) of each animal were examined for signs of arthritogenic responses prior to arthritis induction and test item or control item administration on study Day 0 and subsequently on study Days 3-8, 10 and 12 (study termination). Arthritis reactions were scored and recorded according to a 0-4 scale in ascending order of severity, as shown Table 5 below. Paw thickness was also measured using a dial caliper (Kroeplin, Munich, Germany).\nThe dose administered was calculated based on the assumption that the animals weighed, on average, 20 g. […] Vehicle for the vehicle control group was prepared by dissolving 0.6 g Pluronic and 0.6 g PVP in 100 mL distilled deionised water. The MAb stock solution (10 mg/mL) was supplied by MD Biosciences, Division of Morwell Diagnostics GmbH. LPS was diluted with PBS to achieve the appropriate concentration. Thorough vortexing was required just prior to its injection. […] A fixed volume of 200 μL was administered to each mouse.\nEvaluation was primarily based on the mean values for arthritis scoring and paw thickness measurements. Where appropriate, analysis of the data by ANOVA with Tukey post hoc analysis was applied to determine significance of treatment effects."}}, "data": [{"smiles": "O=C(/C=C\\n1cnc(-c2cc(C(F)(F)F)cc(C(F)(F)F)c2)n1)NNC(=O)CN1CCOCC1", "note": "[Compound 2, (Z)-3-(3-(3,5-bis(trifluoromethyl)phenyl)-1H-1,2,4-triazol-1-yl)-N′-(2-morpholinoacetyl)acrylohydrazide]", "values": [{"measurement": "clinical scores compared to vehicle-treated rats", "setting": "[1]; 5 mg/kg QoD oral", "value": "significantly reduced"}, {"measurement": "joint swelling compared to vehicle-treated rats", "setting": "[1]; 5 mg/kg QoD oral", "value": "significantly reduced"}, {"measurement": "bone erosion in the rear paws compared to vehicle-treated rats", "setting": "[1]; 5 mg/kg QoD oral, Day 28", "value": "significantly reduced bone erosion"}, {"measurement": "IL-1β production in serum compared to the model group", "setting": "[1]; 5 mg/kg QoD, Days 15, 21 and 27", "value": "inhibitory effect"}, {"measurement": "C-reactive protein (CRP) in synovial fluid compared to the model group", "setting": "[1]; 5 mg/kg QoD, Days 21 and 27", "value": "inhibitory effects"}, {"measurement": "IL-1β in synovial fluid compared to the model group", "setting": "[1]; 5 mg/kg QoD, Days 21 and 27", "value": "inhibitory effects"}, {"measurement": "IL-6 in synovial fluid compared to the model group", "setting": "[1]; 5 mg/kg QoD, Days 21 and 27", "value": "inhibitory effects"}, {"measurement": "MCP-1 in synovial fluid compared to the model group", "setting": "[1]; 5 mg/kg QoD, Days 21 and 27", "value": "inhibitory effects"}, {"measurement": "total arthritis score compared to vehicle", "setting": "[2]; 4 mg/kg orally, days 6-12", "value": "significantly reduced total arthritis scores"}, {"measurement": "anti-arthritic activity (mean arthritis scores, paw thickness)", "setting": "[2]; 7.5 mg/kg or 4 mg/kg orally", "value": "significant anti-arthritic activity"}, {"measurement": "rear paw arthritis score compared to vehicle", "setting": "[2]; 7.5 mg/kg or 4 mg/kg orally, days 5-12", "value": "significantly reduced rear paw arthritis scores"}, {"measurement": "total arthritis score compared to vehicle", "setting": "[2]; 7.5 mg/kg orally, days 5-12", "value": "significantly reduced total arthritis scores"}]}]}
